Laboratory results reported in article PMC9202281 (ACS Omega, 2022).
Where two headings read alike, the source gives them in different places.

Experiments:
[1] = target: jack bean urease (EC 3.5.1.5) (Canavalia ensiformis, UniProt P07374); assay: Urease inhibition method; assay type: biochemical
[2] = Solubility in solvents for NMR; assay type: physicochemical

Sequence of jack bean urease (EC 3.5.1.5) (P07374 whole entry, looked up): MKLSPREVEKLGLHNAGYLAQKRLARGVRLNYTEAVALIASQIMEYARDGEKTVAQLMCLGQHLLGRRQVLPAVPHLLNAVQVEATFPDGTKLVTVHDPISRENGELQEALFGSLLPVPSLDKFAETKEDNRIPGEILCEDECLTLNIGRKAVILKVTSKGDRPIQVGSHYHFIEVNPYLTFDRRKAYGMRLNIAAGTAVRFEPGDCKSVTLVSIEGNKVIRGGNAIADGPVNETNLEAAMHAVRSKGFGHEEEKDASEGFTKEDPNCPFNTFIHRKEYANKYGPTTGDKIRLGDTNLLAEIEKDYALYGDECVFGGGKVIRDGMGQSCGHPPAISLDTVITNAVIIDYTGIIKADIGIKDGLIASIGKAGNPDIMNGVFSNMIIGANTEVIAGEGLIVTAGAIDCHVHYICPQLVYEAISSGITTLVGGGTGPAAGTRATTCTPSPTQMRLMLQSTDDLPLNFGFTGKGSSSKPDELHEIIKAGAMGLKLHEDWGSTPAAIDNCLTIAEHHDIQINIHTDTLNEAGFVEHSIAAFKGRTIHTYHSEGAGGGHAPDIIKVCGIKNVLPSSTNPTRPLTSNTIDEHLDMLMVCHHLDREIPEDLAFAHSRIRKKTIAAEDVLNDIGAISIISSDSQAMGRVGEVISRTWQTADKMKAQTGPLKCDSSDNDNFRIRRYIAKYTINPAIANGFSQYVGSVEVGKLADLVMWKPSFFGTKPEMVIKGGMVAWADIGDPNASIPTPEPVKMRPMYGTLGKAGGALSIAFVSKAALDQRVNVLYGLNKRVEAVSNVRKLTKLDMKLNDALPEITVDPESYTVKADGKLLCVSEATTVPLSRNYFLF

Molecule `O=C1NC(=O)C(C2c3ccccc3C(=O)N2c2ccc(Br)cc2)C(=O)N1` (stereo not shown) [5e, 5-(2-(4-Bromophenyl)-3-oxoisoindolin-1-yl) Barbituric Acid] has an IC50 [1] of 960 ± 10 nM.
Molecule `O=C1NC(=O)C(C2c3ccccc3C(=O)N2c2cccc(Cl)c2)C(=O)N1` (stereo not shown) [5i, 5-(2-(3-Chlorophenyl)-3-oxoisoindolin-1-yl) Barbituric Acid] has an IC50 [1] of 1220 ± 50 nM.
With `CN1C(=O)C(C2OC(=O)c3ccccc32)C(=O)N(C)C1=O` (stereo not shown) [3b, 1,3-Dimethyl-5-(3-oxo-1,3-dihydroisobenzofuran-1-yl) Barbituric Acid] the solubility in solvents [2] was “soluble in CHCl3”.
Molecule `CC(C)N1C(=O)c2ccccc2C1C1C(=O)NC(=O)NC1=O` (stereo not shown) [5l, 5-(2-Isopropyl-3-oxoisoindolin-1-yl) Barbituric Acid] has an IC50 [1] of 1850 ± 60 nM.
With `O=C1NC(=O)C(C2c3ccccc3C(=O)N2c2ccc(Cl)cc2)C(=O)N1` (stereo not shown) [5c, 5-(2-(4-Chlorophenyl)-3-oxoisoindolin-1-yl) Barbituric Acid] the IC50 [1] was 1250 ± 50 nM.
For `O=C1NC(=O)C(C2c3ccccc3C(=O)N2c2ccccc2)C(=O)N1` (stereo not shown) [5a, 5-(3-Oxo-2-phenylisoindolin-1-yl) Barbituric Acid], the IC50 [1] was 1850 ± 60 nM.
With `COc1ccc(N2C(=O)c3ccccc3C2C2C(=O)NC(=O)NC2=O)cc1` (stereo not shown) [5b, 5-(2-(4-Methoxyphenyl)-3-oxoisoindolin-1-yl) Barbituric Acid] the IC50 [1] was 820 ± 30 nM.
Work on `O=C1NC(=O)C(C2c3ccccc3C(=O)N2c2cc(Cl)cc(Cl)c2)C(=O)N1` (stereo not shown) [5j, 5-(2-(3,5-Dichlorophenyl)-3-oxoisoindolin-1-yl) Barbituric Acid] yielded an IC50 [1] of 1780 ± 100 nM.
For `Cc1ccc(N2C(=O)c3ccccc3C2C2C(=O)NC(=O)NC2=O)cc1C` (stereo not shown) [5d, 5-(2-(3,4-Dimethylphenyl)-3-oxoisoindolin-1-yl) Barbituric Acid], the IC50 [1] was 1070 ± 20 nM.
`Cc1ccc(N2C(=O)c3ccccc3C2C2C(=O)NC(=O)NC2=O)cc1` (stereo not shown) [5g, 5-(3-Oxo-2-(p-tolyl) Isoindolin-1-yl) Barbituric Acid] gave an IC50 [1] of 1090 ± 70 nM.
With `O=C1NC(=O)C(C2c3ccccc3C(=O)N2c2ccc(F)cc2)C(=O)N1` (stereo not shown) [5h, 5-(2-(4-Fluorophenyl)-3-oxoisoindolin-1-yl) Barbituric Acid] the IC50 [1] was 1280 ± 40 nM.
Molecule `COc1ccc(N2C(=O)c3ccccc3C2C2C(=O)NC(=S)NC2=O)cc1` (stereo not shown) [5n, 5-(2-(4-Methoxyphenyl)-3-oxoisoindolin-1-yl)-2-thiobarbituric Acid] has an IC50 [1] of 1340 ± 10 nM.
`CC(C)CN1C(=O)c2ccccc2C1C1C(=O)NC(=O)NC1=O` (stereo not shown) [5k, 5-(2-Isobutyl-3-oxoisoindolin-1-yl) Barbituric Acid] gave an IC50 [1] of 1620 ± 50 nM.
`COc1ccc(N2C(=O)c3ccccc3C2C2C(=O)N(C)C(=O)N(C)C2=O)cc1` (stereo not shown) [5m, 1,3-Dimethyl-5-(2-(4-methoxyphenyl)-3-oxoisoindolin-1-yl) Barbituric Acid] showed an IC50 [1] of 970 ± 10 nM.
`NC(N)=S` [thiourea, reference compound] showed an IC50 ([1]; read-out: IC50 ± SEM, jack bean urease, triplicate, mean ± SEM) of 22000 ± 1200 nM.
With `O=C1NC(=O)C(C2c3ccccc3C(=O)N2c2ccc(Cl)c(Cl)c2)C(=O)N1` (stereo not shown) [5f, 5-(2-(3,4-Dichlorophenyl)-3-oxoisoindolin-1-yl) Barbituric Acid] the IC50 [1] was 960 ± 10 nM.
